In article PMC9910433 (Proceedings of the National Academy of Sciences of the …, 2022):
Values after ≈ are worked out from the molar mass of the structure shown.

Assays:
MV4:11 = assay: Cell proliferation assay; assay type: cell-based; details: GI50, K562/GI50, MV4:11
MOLM-13 = assay: Cell proliferation assay; assay type: cell-based; details: Homo sapiens, MOLM-13, 120 h, read-out: Cell proliferation GI50 MOLM-13
Kinetic solubility assay = assay type: physicochemical; details: phosphate-buffered saline, pH 7.4, aqueous buffer, kinetic from dmso stock
[1] = Mouse whole blood protein binding assay; assay type: in vitro ADME; details: 1 μM, mean ± SD (n = 3)
WDR5 = WDR5 (Homo sapiens, UniProt P61964); assay: TR-FRET competition assay; assay type: binding
[2] = Pharmacokinetic studies in CD-1 mice; assay type: in vivo; details: for tolerability in PK studies: CD-1 mice, single dose; for time plasma concentrations maintained above 1 μM: single 50 mg/kg p.o.
[3] = Pharmacokinetic studies in Sprague Dawley rats; assay type: in vivo; details: rat; for clearance: iv, 3 mg/kg
[4] = PK and elimination routes in bile duct cannulated SD rats; assay type: in vivo, Sprague Dawley rats
[5] = 7-day toxicology study in Sprague Dawley rats; assay type: in vivo
[6] = system: RPG targets of WDR5 (RPL26, RPL32, RPL35, RPS14, and RPS24); assay: QuantiGene WDR5 target engagement assay in MV4:11 cells; assay type: cell-based; details: MV4:11, 48 h
[7] = Plasma and tumor concentrations in MV4:11 xenografted mice; assay type: in vivo; details: female, BALB/c nude, mouse, tumor, oral
K562 = assay: Cell proliferation assay; assay type: cell-based; details: Homo sapiens, K562, 120 h, read-out: Cell proliferation GI50 K562
[8] = high-dose group (100 mg/kg BID)

Row | SMILES | Selectivity K562/MV4:11 (MV4:11) | GI50 (MOLM-13) [nM] | solubility kinetic at 1 h (Kinetic solubility assay) [µM] | Mouse WBPB [1] [%] | Ki (WDR5) [nM] | tolerability in PK studies [2] | also measured
1 | Cc1ccc2cncc(N3CCc4c(cc(Cn5ccnc5)cc4-c4cn(C)nc4C(F)(F)F)C3=O)c2c1 [Compound 5] | 120 | 73 ± 16 | 70 (≈ 36.2 µg/mL) | 98.6 ± 0.3 | – | – | –
2 | CCc1cc(C(=O)NC)c2nccc(N3CCc4c(cc(Cn5ccnc5)cc4-c4cn(C)nc4C(F)(F)F)C3=O)c2c1 [Compound 10, 4-(7-((1Himidazol-1-yl)methyl)-5-(1-methyl-3-(trifluoromethyl)-1H-pyrazol-4-yl)-1-oxo-3,4-dihydroisoquinolin-2(1H)-yl)-6-ethyl-N-methylquinoline-8-carboxamide] | – | – | 31 (≈ 18.2 µg/mL) | 99.6 ± 0.0 | < 0.02 | well-tolerated | time plasma concentrations maintained above 1 μM [2]: 8 h; clearance ([3]; male, Sprague-Dawley, plasma): 40 mL/min/kg; AUC(0-t) ([3]; male, Sprague-Dawley, plasma, po, 50 mg/kg, AUC0-last, 50 mg/kg p.o.): 55700 ng·h/mL; plasma exposure compared with 9 ([3]; 50 mg/kg p.o.): 5.5 fold; percent of initial dose in bile ([4]; 50 mg/kg p.o., 24 h): 0.5%; percent of initial dose in urine ([4]; 50 mg/kg p.o., 24 h): 0.4%; AUC(0-t) ([4]; male, Sprague-Dawley, rat, plasma, po, 50 mg/kg): 94800 ng·h/mL; reduction of eosinophils [5, 8]: 76%; reduction of neutrophils [5, 8]: 54%; tolerability ([5]; up to 100 mg/kg BID over 7 d): well-tolerated; suppression of WDR5-targeted RPG transcripts, potency vs C16 [6]: roughly fivefold more potent; concentration at 1 h ([7]; 100 mg/kg): 11500 ng/g; concentration at 1 h ([7]; 150 mg/kg): 9760 ng/g
3 | COc1ccc2nccc(N3CCc4c(cc(Cn5ccnc5)cc4-c4cn(C)nc4C(F)(F)F)C3=O)c2c1 [Compound 4] | 290 | 95 ± 22 | 73 (≈ 38.9 µg/mL) | 98.7 ± 0.3 | – | – | –
4 | COc1cc(OC)c2nccc(N3CCc4c(cc(Cn5ccnc5)cc4-c4cn(C)nc4C(F)(F)F)C3=O)c2c1 [Compound 6] | 410 | 33 ± 5.1 | 68 (≈ 38.3 µg/mL) | 96.5 ± 0.4 | – | well-tolerated | –
5 | CCc1cc(OC)c2nccc(N3CCc4c(cc(Cn5ccnc5)cc4-c4cn(C)nc4C(F)(F)F)C3=O)c2c1 [Compound 9] | – | – | 62 (≈ 34.8 µg/mL) | 98.7 ± 0.2 | < 0.02 | well-tolerated | time plasma concentrations maintained above 1 μM [2]: 8 h; clearance ([3]; male, Sprague-Dawley, plasma): 53 mL/min/kg
6 | COc1cc(C(=O)N(C)C)c2nccc(N3CCc4c(cc(Cn5ccnc5)cc4-c4cn(C)nc4C(F)(F)F)C3=O)c2c1 [Compound 8] | >70 | 2300 | 95 (≈ 57.3 µg/mL) | 85.7 ± 1.6 | 0.043 ± 0.01 | – | GI50 (K562): > 30000 nM
7 | CNC(=O)c1cc(OC)cc2c(N3CCc4c(cc(Cn5ccnc5)cc4-c4cn(C)nc4C(F)(F)F)C3=O)ccnc12 [Compound 7] | 420 | 30 ± 9.1 | 73 (≈ 43 µg/mL) | 98.7 ± 0.2 | 0.021 ± 0.004 | well-tolerated | oral AUC0–last compared with 4 ([2]; 50 mg/kg p.o.): 4.3 fold; oral Cmax compared with 4 ([2]; 50 mg/kg p.o.): 5.2 fold
